Laboratory results published in patent US7300946B2, “N-(substituted arylmethyl)-4-(disubstituted methyl) piperidines and pyridines” (Bayer CropScience AG, priority 2002, dated 2007).

Test system: tobacco budworm (Heliothis virescens [Fabricius])
Assay: surface-treated diet test against the tobacco budworm
Type: in vivo
Settings: tobacco budworm second instar larvae; 0.25 millimoles of candidate insecticide on the surface of the diet; five-day exposure; compared to total number of insects infested
In short: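 Wheat germ artificial diet surface-treated with 40 µL of 50 mM DMSO stock diluted 1:7 in 1:1 water/acetone (0.25 millimolar on diet), or sub-multiples for rate tests. One second-instar larva per well, 25° C, 60% RH, 5 days; percent weight inhibition vs DMSO controls and percent mortality.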

Structure (SMILES)	Percent Mortality
O=C(Nc1cc(F)cc(F)c1)OC(c1cc(Cl)cc(Cl)c1)C1CCN(Cc2ccc(Oc3ncccn3)cc2)CC1 (stereo not drawn) [Compound 728]	100%
C#CCON=Cc1ccc(C[N+]2([O-])CCC(C(OC(=O)Nc3cc(F)cc(F)c3)c3ccc(C(F)(F)F)cc3)CC2)cc1 (stereo not drawn) [Compound 744]	100%
CCON=Cc1ccc(C[N+]2([O-])CCC(C(OC(=O)Nc3cc(F)cc(F)c3)c3ccc(C(F)(F)F)cc3)CC2)cc1 (stereo not drawn) [Compound 743]	100%
O=C(Nc1cc(F)cc(F)c1)OC(c1ccc(C(F)(F)F)cc1)C1CC[N+]([O-])(Cc2ccc(Oc3cccc(Cl)n3)cc2)CC1 (stereo not drawn) [Compound 757]	100%
FC(F)(F)c1ccc(C(=C2CCN(Cc3ccc(Oc4ncccn4)cc3)CC2)c2cccc(Cl)c2)cc1 [Compound 815]	100%
O=C(Nc1ccc(Cl)cc1)OC(c1ccc(C(F)(F)F)cc1)C1CC[N+]([O-])(Cc2ccc(Oc3ncccn3)cc2)CC1 (stereo not drawn) [Compound 762]	100%
O=C(Nc1ccc(Cl)cc1)OC(c1ccc(C(F)(F)F)cc1)C1CCN(Cc2ccc(Oc3ccc(Cl)nn3)cc2)CC1 (stereo not drawn) [Compound 737]	100%
Fc1ccc(C(=C2CCN(Cc3ccc(Oc4ccccn4)cc3)CC2)c2ccc(F)cc2)cc1 [Compound 810]	100%
O=C(NC1CCCC1)OC(c1ccc(C(F)(F)F)cc1)C1CCN(Cc2ccc(Oc3ccccn3)cc2)CC1 (stereo not drawn) [Compound 781]	100%
[O-][N+]1(Cc2ccc(Oc3ccc(Cl)nn3)cc2)CCC(=C(c2ccc(C(F)(F)F)cc2)c2ccc(C(F)(F)F)cc2)CC1 (stereo not drawn) [Compound 855]	100%
CSc1ccc(NC(=O)OC(c2ccc(C(F)(F)F)cc2)C2CCN(Cc3ccc(Oc4ccccn4)cc3)CC2)cc1 (stereo not drawn) [Compound 702]	100%
O=C(Nc1cccc(F)c1)OC(c1ccc(Cl)cc1Cl)C1CCN(Cc2ccc(Oc3ncccn3)cc2)CC1 (stereo not drawn) [Compound 719]	100%
CC(C)OC(=O)c1ccc(C[N+]2([O-])CCC(C(OC(=O)Nc3ccc(Cl)cc3)c3ccc(C(F)(F)F)cc3)CC2)cc1 (stereo not drawn) [Compound 745]	100%
C#CCOC(=O)Nc1ccc(CN2CCC(=C(c3ccc(C(F)(F)F)cc3)c3ccc(C(F)(F)F)cc3)CC2)cc1 [Compound 802]	100%

Same assay, conditions: tobacco budworm second instar larvae; 0.25 millimoles of candidate insecticide on the surface of the diet; five-day exposure; inhibition of insect weight relative to untreated controls

Structure (SMILES)	Percent Growth Inhibition
O=C(Nc1cc(F)cc(F)c1)OC(c1cc(Cl)cc(Cl)c1)C1CCN(Cc2ccc(Oc3ncccn3)cc2)CC1 (stereo not drawn) [Compound 728]	100%
C#CCON=Cc1ccc(C[N+]2([O-])CCC(C(OC(=O)Nc3cc(F)cc(F)c3)c3ccc(C(F)(F)F)cc3)CC2)cc1 (stereo not drawn) [Compound 744]	100%
CCON=Cc1ccc(C[N+]2([O-])CCC(C(OC(=O)Nc3cc(F)cc(F)c3)c3ccc(C(F)(F)F)cc3)CC2)cc1 (stereo not drawn) [Compound 743]	100%
O=C(Nc1cc(F)cc(F)c1)OC(c1ccc(C(F)(F)F)cc1)C1CC[N+]([O-])(Cc2ccc(Oc3cccc(Cl)n3)cc2)CC1 (stereo not drawn) [Compound 757]	100%
FC(F)(F)c1ccc(C(=C2CCN(Cc3ccc(Oc4ncccn4)cc3)CC2)c2cccc(Cl)c2)cc1 [Compound 815]	100%
O=C(Nc1ccc(Cl)cc1)OC(c1ccc(C(F)(F)F)cc1)C1CC[N+]([O-])(Cc2ccc(Oc3ncccn3)cc2)CC1 (stereo not drawn) [Compound 762]	100%
O=C(Nc1ccc(Cl)cc1)OC(c1ccc(C(F)(F)F)cc1)C1CCN(Cc2ccc(Oc3ccc(Cl)nn3)cc2)CC1 (stereo not drawn) [Compound 737]	100%
Fc1ccc(C(=C2CCN(Cc3ccc(Oc4ccccn4)cc3)CC2)c2ccc(F)cc2)cc1 [Compound 810]	100%
O=C(NC1CCCC1)OC(c1ccc(C(F)(F)F)cc1)C1CCN(Cc2ccc(Oc3ccccn3)cc2)CC1 (stereo not drawn) [Compound 781]	100%
[O-][N+]1(Cc2ccc(Oc3ccc(Cl)nn3)cc2)CCC(=C(c2ccc(C(F)(F)F)cc2)c2ccc(C(F)(F)F)cc2)CC1 (stereo not drawn) [Compound 855]	100%
CSc1ccc(NC(=O)OC(c2ccc(C(F)(F)F)cc2)C2CCN(Cc3ccc(Oc4ccccn4)cc3)CC2)cc1 (stereo not drawn) [Compound 702]	100%
O=C(Nc1cccc(F)c1)OC(c1ccc(Cl)cc1Cl)C1CCN(Cc2ccc(Oc3ncccn3)cc2)CC1 (stereo not drawn) [Compound 719]	100%
CC(C)OC(=O)c1ccc(C[N+]2([O-])CCC(C(OC(=O)Nc3ccc(Cl)cc3)c3ccc(C(F)(F)F)cc3)CC2)cc1 (stereo not drawn) [Compound 745]	100%
C#CCOC(=O)Nc1ccc(CN2CCC(=C(c3ccc(C(F)(F)F)cc3)c3ccc(C(F)(F)F)cc3)CC2)cc1 [Compound 802]	100%

Same assay, conditions: tobacco budworm second instar larvae; surface-treated diet; 0.25 millimoles of candidate insecticide on the surface of the diet; five-day exposure; compared to total number of insects infested

Structure (SMILES)	Percent Mortality
Nc1ccc(CN2CCC(C(OC(=O)Nc3cc(F)cc(F)c3)c3ccc(C(F)(F)F)cc3)CC2)cc1 (stereo not drawn) [Compound 466]	17%
CC(=O)Nc1ccc(CN2CCC(=C(c3ccc(C(F)(F)F)cc3)c3ccc(C(F)(F)F)cc3)CC2)cc1 [Compound 52]	33%
Cn1nnc(-c2ccc(CN3CCC(C(OC(=O)Nc4ccc(C(F)(F)F)cc4)c4ccc(OC(F)(F)F)cc4)CC3)cc2)n1 (stereo not drawn) [Compound 290]	100%
CCn1nnc(-c2ccc(CN3CCC(C(OC(=O)Nc4ccc(F)c(F)c4)c4cc(Cl)cc(Cl)c4)CC3)cc2)n1 (stereo not drawn) [Compound 579]	100%
CCn1nnc(-c2ccc(CN3CCC(=C(c4ccc(Cl)cc4)c4ccc(Cl)cc4)CC3)cc2)n1 [Compound 77]	100%
O=C(NCc1ccccc1)OC(c1ccc(C(F)(F)F)cc1)C1CCN(Cc2ccc(Oc3ccccn3)cc2)CC1 (stereo not drawn) [Compound 659]	50%
O=C(Nc1ccncc1)OC(c1ccc(C(F)(F)F)cc1)C1CCN(Cc2ccc(Oc3ccccn3)cc2)CC1 (stereo not drawn) [Compound 450]	0%
CCn1nnc(-c2ccc(CN3CCC(C(OC(=O)Nc4ccc(Cl)c(Cl)c4)c4ccc(C(F)(F)F)cc4)CC3)cc2)n1 (stereo not drawn) [Compound 283]	100%
CCn1nnc(-c2ccc(CN3CCC(=C(c4ccc(F)cc4)c4ccc(Cl)cc4)CC3)cc2)n1 [Compound 79]	83%
O=C(Nc1ccc(F)cc1F)OC(c1ccc(C(F)(F)F)cc1)C1CCN(Cc2ccc(Oc3ccccn3)cc2)CC1 (stereo not drawn) [Compound 679]	100%

Same assay, conditions: tobacco budworm second instar larvae; surface-treated diet; 0.25 millimoles of candidate insecticide on the surface of the diet; five-day exposure; inhibition of insect weight relative to untreated controls

Structure (SMILES)	Percent Growth Inhibition
Nc1ccc(CN2CCC(C(OC(=O)Nc3cc(F)cc(F)c3)c3ccc(C(F)(F)F)cc3)CC2)cc1 (stereo not drawn) [Compound 466]	77%
CC(=O)Nc1ccc(CN2CCC(=C(c3ccc(C(F)(F)F)cc3)c3ccc(C(F)(F)F)cc3)CC2)cc1 [Compound 52]	100%
Cn1nnc(-c2ccc(CN3CCC(C(OC(=O)Nc4ccc(C(F)(F)F)cc4)c4ccc(OC(F)(F)F)cc4)CC3)cc2)n1 (stereo not drawn) [Compound 290]	100%
CCn1nnc(-c2ccc(CN3CCC(C(OC(=O)Nc4ccc(F)c(F)c4)c4cc(Cl)cc(Cl)c4)CC3)cc2)n1 (stereo not drawn) [Compound 579]	100%
CCn1nnc(-c2ccc(CN3CCC(=C(c4ccc(Cl)cc4)c4ccc(Cl)cc4)CC3)cc2)n1 [Compound 77]	100%
O=C(NCc1ccccc1)OC(c1ccc(C(F)(F)F)cc1)C1CCN(Cc2ccc(Oc3ccccn3)cc2)CC1 (stereo not drawn) [Compound 659]	100%
O=C(Nc1ccncc1)OC(c1ccc(C(F)(F)F)cc1)C1CCN(Cc2ccc(Oc3ccccn3)cc2)CC1 (stereo not drawn) [Compound 450]	62%
CCn1nnc(-c2ccc(CN3CCC(C(OC(=O)Nc4ccc(Cl)c(Cl)c4)c4ccc(C(F)(F)F)cc4)CC3)cc2)n1 (stereo not drawn) [Compound 283]	100%
CCn1nnc(-c2ccc(CN3CCC(=C(c4ccc(F)cc4)c4ccc(Cl)cc4)CC3)cc2)n1 [Compound 79]	100%
O=C(Nc1ccc(F)cc1F)OC(c1ccc(C(F)(F)F)cc1)C1CCN(Cc2ccc(Oc3ccccn3)cc2)CC1 (stereo not drawn) [Compound 679]	100%
